Test results published in patent US11192867B2, “Microbiocidal oxadiazole derivatives” (SYNGENTA PARTICIPATIONS AG, priority 2016, dated 2021).

Tests used:
[1] = system: Phakopsora pachyrhizi; assay: Fungicidal activity against Phakopsora pachyrhizi / soybean / leaf disc preventative (Asian soybean rust); format: in vivo; conditions: foliar, 200 ppm in the applied formulation, soybean leaf disks, vs untreated control, read-out: disease control
Protocol: Leaf disks or leaf segments of various plant species are cut from plants grown in a greenhouse. The cut leaf disks or segments are placed in multiwell plates (24-well format) onto water agar. The leaf disks are sprayed with a test solution before (preventative) or after (curative) inoculation. Compounds to be tested are prepared as DMSO solutions (max. 10 mg/ml) which are diluted to the appropriate concentration with 0.025% Tween20 just before spraying. The inoculated leaf disks or segments are incubated under defined conditions (temperature, relative humidity, light, etc.) according to the respective test system. A single evaluation of disease level is carried out 3 to 14 days after inoculation, depending on the pathosystem. Percent disease control relative to the untreated check leaf disks or segments is then calculated. Soybean leaf disks are placed on water agar in multiwell plates (24-well format) and sprayed with the formulated test compound diluted in water. One day after application leaf discs are inoculated by spraying a spore suspension on the lower leaf surface. After an incubation period in a climate cabinet of 24-36 hours in darkness at 20° C. and 75% rh leaf disc are kept at 20° C. with 12 hours light/12 hours and 75% rh. The activity of a compound is assessed as percent disease control compared to untreated when an appropriate level of disease damage appears in untreated check leaf disks (12 to 14 days after application). The following compounds at 200 ppm in the applied formulation give at least 80% disease control in this test when compared to untreated control leaf disks under the same conditions, which show extensive disease development.

[2] = system: Puccinia recondita f. sp. Tritici; assay: Fungicidal activity against Puccinia recondita f. sp. Tritici / wheat / leaf disc curative (brown rust); format: in vivo; conditions: foliar, 24 h, 200 ppm in the applied formulation, wheat leaf segments cv. Kanzler, applied 1 day after inoculation, vs untreated control, read-out: disease control
Protocol: Leaf disks or leaf segments of various plant species are cut from plants grown in a greenhouse. The cut leaf disks or segments are placed in multiwell plates (24-well format) onto water agar. The leaf disks are sprayed with a test solution before (preventative) or after (curative) inoculation. Compounds to be tested are prepared as DMSO solutions (max. 10 mg/ml) which are diluted to the appropriate concentration with 0.025% Tween20 just before spraying. The inoculated leaf disks or segments are incubated under defined conditions (temperature, relative humidity, light, etc.) according to the respective test system. A single evaluation of disease level is carried out 3 to 14 days after inoculation, depending on the pathosystem. Percent disease control relative to the untreated check leaf disks or segments is then calculated.
Wheat leaf segments cv. Kanzler are placed on agar in multiwell plates (24-well format). The leaf segments are then inoculated with a spore suspension of the fungus. Plates were stored in darkness at 19° C. and 75% relative humidity. The formulated test compound diluted in water was applied 1 day after inoculation. The leaf segments were incubated at 19° C. and 75% relative humidity under a light regime of 12 hours light/12 hours darkness in a climate cabinet and the activity of a compound was assessed as percent disease control compared to untreated when an appropriate level of disease damage appears in untreated check leaf segments (6 to 8 days after application).
The following compounds at 200 ppm in the applied formulation give at least 80% disease control in this test when compared to untreated control leaf disks under the same conditions, which show extensive disease development.

[3] = system: Glomerella lagenarium (Colletotrichum lagenarium); assay: Fungicidal activity against Glomerella lagenarium (Colletotrichum lagenarium) liquid culture / cucumber / preventative (anthracnose); format: cell-based; conditions: Colletotrichum orbiculare, 72 h; 20 ppm in the applied formulation; liquid culture (PDB), growth inhibition measured photometrically 3 to 4 days after application; vs untreated control; read-out: disease control
Protocol: Mycelia fragments or conidia suspensions of a fungus prepared either freshly from liquid cultures of the fungus or from cryogenic storage, are directly mixed into nutrient broth. DMSO solutions of the test compound (max. 10 mg/ml) are diluted with 0.025% Tween20 by a factor of 50 and 10 μl of this solution is pipetted into a microtiter plate (96-well format). The nutrient broth containing the fungal spores/mycelia fragments is then added to give an end concentration of the tested compound. The test plates are incubated in the dark at 24° C. and 96% relative humidity. The inhibition of fungal growth is determined photometrically after 2 to 7 days, depending on the pathosystem, and percent antifungal activity relative to the untreated check is calculated.
Conidia of the fungus from cryogenic storage are directly mixed into nutrient broth (PDB—potato dextrose broth). After placing a (DMSO) solution of test compound into a microtiter plate (96-well format), the nutrient broth containing the fungal spores is added. The test plates are incubated at 24° C. and the inhibition of growth is measured photometrically 3 to 4 days after application.
The following compounds at 20 ppm in the applied formulation give at least 80% disease control in this test when compared to untreated control under the same conditions, which show extensive disease development.

[4] = system: Puccinia recondita f. sp. Tritici; assay: Fungicidal activity against Puccinia recondita f. sp. Tritici / wheat / leaf disc preventative (brown rust); format: in vivo; conditions: foliar, 200 ppm in the applied formulation, wheat leaf segments cv. Kanzler, inoculated 1 day after application, vs untreated control, read-out: disease control
Protocol: Leaf disks or leaf segments of various plant species are cut from plants grown in a greenhouse. The cut leaf disks or segments are placed in multiwell plates (24-well format) onto water agar. The leaf disks are sprayed with a test solution before (preventative) or after (curative) inoculation. Compounds to be tested are prepared as DMSO solutions (max. 10 mg/ml) which are diluted to the appropriate concentration with 0.025% Tween20 just before spraying. The inoculated leaf disks or segments are incubated under defined conditions (temperature, relative humidity, light, etc.) according to the respective test system. A single evaluation of disease level is carried out 3 to 14 days after inoculation, depending on the pathosystem. Percent disease control relative to the untreated check leaf disks or segments is then calculated. Wheat leaf segments cv. Kanzler were placed on agar in multiwell plates (24-well format) and sprayed with the formulated test compound diluted in water. The leaf disks were inoculated with a spore suspension of the fungus 1 day after application. The inoculated leaf segments were incubated at 19° C. and 75% relative humidity (rh) under a light regime of 12 hours light/12 hours darkness in a climate cabinet and the activity of a compound was assessed as percent disease control compared to untreated when an appropriate level of disease damage appears in untreated check leaf segments (7 to 9 days after application). The following compounds at 200 ppm in the applied formulation give at least 80% disease control in this test when compared to untreated control leaf disks under the same conditions, which show extensive disease development.

SMILES	pest or weed control at 200 ppm [1]	pest or weed control at 200 ppm [2]	inhibition of growth at 20 ppm [3]	pest or weed control at 200 ppm [4]
COc1ccc(CON=CC(C)NC(=O)c2ccc(-c3noc(C(F)(F)F)n3)cc2)cc1 (stereo not shown) [Compound 1.19, N-[2-[(4-methoxyphenyl)methoxyimino]-1-methyl-ethyl]-4-[5-(trifluoromethyl)-1,2,4-oxadiazol-3-yl]benzamide]	≥ 80%	≥ 80%		
CC(C=NOC(C)C(=O)O)NC(=O)c1ccc(-c2noc(C(F)(F)F)n2)cc1 (stereo not shown) [Compound 1.37, 2-[2-[[4-[5-(trifluoromethyl)-1,2,4-oxadiazol-3-yl]benzoyl]amino]propylideneamino] oxypropanoic acid]		≥ 80%	≥ 80%	≥ 80%
CC(C=NO[C@H](C)C(=O)O)NC(=O)c1ccc(-c2noc(C(F)(F)F)n2)cc1 (stereo partly drawn) [Compound 1.29, (2R)-2-[2-[[4-[5-(trifluoromethyl)-1,2,4-oxadiazol-3-yl]benzoyl]amino]propylideneamino] oxypropanoic acid]		≥ 80%	≥ 80%	≥ 80%
CON=CC(C)(C)NC(=O)c1ccc(-c2noc(C(F)(F)F)n2)cc1 [Compound 1.1, N-(2-methoxyimino-1,1-dimethyl-ethyl)-4-[5-(trifluoromethyl)-1,2,4-oxadiazol-3-yl]benzamide]		≥ 80%	≥ 80%	
Cc1ccc(CON=CC(C)NC(=O)c2ccc(-c3noc(C(F)(F)F)n3)cc2)cc1 (stereo not shown) [Compound 1.18, N-[1-methyl-2-(p-tolylmethoxyimino)ethyl]-4-[5-(trifluoromethyl)-1,2,4-oxadiazol-3-yl]benzamide]		≥ 80%		
CC(C=NOCC(=O)O)NC(=O)c1ccc(-c2noc(C(F)(F)F)n2)cc1 (stereo not shown) [Compound 1.20, 2-[2-[[4-[5-(trifluoromethyl)-1,2,4-oxadiazol-3-yl]benzoyl]amino]propylidene-amino] oxyacetic acid]		≥ 80%	≥ 80%	≥ 80%
CC(C=NOCc1ccc([N+](=O)[O-])cc1)NC(=O)c1ccc(-c2noc(C(F)(F)F)n2)cc1 (stereo not shown) [Compound 1.16, N-[1-methyl-2-[(4-nitrophenyl)methoxyimino]ethyl]-4-[5-(trifluoromethyl)-1,2,4-oxadiazol-3-yl]benzamide]	≥ 80%	≥ 80%		
CC(CNC(=O)c1ccc(-c2noc(C(F)(F)F)n2)cc1)=NOCC=CCl [Compound 1.121, N-[2-(3-chloroallyloxy-imino)propyl]-4-[5-(trifluoromethyl)-1,2,4-oxadiazol-3-yl]benzamide]	≥ 80%		≥ 80%	≥ 80%
COc1ccccc1CON=CCNC(=O)c1ccc(-c2noc(C(F)(F)F)n2)cc1 [Compound 1.68, N-[2-[(2-methoxyphenyl)methoxyimino]ethyl]-4-[5-(trifluoromethyl)-1,2,4-oxadiazol-3-yl]benzamide]	≥ 80%		≥ 80%	≥ 80%
O=C(NCC=NOCC=C(Cl)Cl)c1ccc(-c2noc(C(F)(F)F)n2)cc1 [Compound 1.79, N-[2-(3,3-dichloroallyloxy-imino)ethyl]-4-[5-(trifluoromethyl)-1,2,4-oxadiazol-3-yl]benzamide]	≥ 80%		≥ 80%	≥ 80%
COc1cccc(CON=CCNC(=O)c2ccc(-c3noc(C(F)(F)F)n3)cc2)c1 [Compound 1.62, N-[2-[(3-methoxyphenyl)methoxyimino]ethyl]-4-[5-(trifluoromethyl)-1,2,4-oxadiazol-3-yl]benzamide]	≥ 80%		≥ 80%	≥ 80%
CON=CC(C)(C)NC(=O)c1ccc(-c2noc(C(F)(F)F)n2)cc1F [Compound 1.2, 2-fluoro-N-(2-methoxyimino-1,1-dimethyl-ethyl)-4-[5-(trifluoromethyl)-1,2,4-oxadiazol-3-yl]benzamide]	≥ 80%	≥ 80%	≥ 80%	
CC(CNC(=O)c1ccc(-c2noc(C(F)(F)F)n2)cc1)=NOC/C=C\Cl [Compound 1.124, N-[2-[(Z)-3-chloroallyloxy]iminopropyl]-4-[5-(trifluoromethyl)-1,2,4-oxadiazol-3-yl]benzamide]	≥ 80%		≥ 80%	≥ 80%
COc1cccc(CON=CC(C)NC(=O)c2ccc(-c3noc(C(F)(F)F)n3)cc2)c1 (stereo not shown) [Compound 1.17, N-[2-[(3-methoxyphenyl)methoxyimino]-1-methyl-ethyl]-4-[5-(trifluoromethyl)-1,2,4-oxadiazol-3-yl]benzamide]	≥ 80%	≥ 80%	≥ 80%	
CC(CNC(=O)c1ccc(-c2noc(C(F)(F)F)n2)cc1)=NOCC=C(Cl)Cl [Compound 1.122, N-[2-(3,3-dichloroallyloxy-imino)propyl]-4-[5-(trifluoromethyl)-1,2,4-oxadiazol-3-yl]benzamide]	≥ 80%		≥ 80%	≥ 80%
CC(C)=CCON=CCNC(=O)c1ccc(-c2noc(C(F)(F)F)n2)cc1 [Compound 1.80, N-[2-(3-methylbut-2-enoxyimino)ethyl]-4-[5-(trifluoromethyl)-1,2,4-oxadiazol-3-yl]benzamide]	≥ 80%		≥ 80%	≥ 80%
CC(C=NOCc1ccccc1CC(=O)O)NC(=O)c1ccc(-c2noc(C(F)(F)F)n2)cc1 (stereo not shown) [Compound 1.48, 2-[2-[[2-[[4-[5-(trifluoromethyl)-1,2,4-oxadiazol-3-yl]benzoyl]amino]propylideneamino]oxymethyl]phenyl] acetic acid]	≥ 80%		≥ 80%	≥ 80%
